Publication PMC7887271, “Fast acting allosteric phosphofructokinase inhibitors block trypanosome glycolysis and cure acute African trypanosomiasis in mice” (Nature Communications, 2021)
Several values for one entry are separate records, joined by “and”; a condition that tells them apart may be missing. Equal values may be shown once. Read-outs that look alike come from different tables or passages of the source.

Key:
[1] = Metabolic stability, mouse liver microsomes; type: in vitro ADME; settings: read-out: MLM Clint
Method: A HepG2 cytotoxicity assay was used to determine a cellular selectivity index. HepG2 cells were seeded into 96-well plates in EMEM medium. Compounds were assessed for their effect upon cellular viability (Supplementary Methods 5.1). Inhibition of CYP450 was determined using kits from BD Biosciences (Supplementary Methods 5.2). Metabolic stability was determined using mouse […] tested at a single concentration of 5 µM. Plasma protein binding was determined using mouse and human plasma at a single concentration of 10 µM (Supplementary Methods 5.4). All PK studies in mice were carried out by Pharmidex (Supplementary Methods 6.1).
Compounds were tested for their metabolic stability using mouse and human liver microsomes (MLM and HLM). The compounds were tested at a single concentration of 5 µM. The samples were crashed with acetonitrile and put through protein precipitation plates. The eluent was analysed by LC/MS or LC/MS/MS.

[2] = Pharmacokinetic studies in mice (IV and PO); type: in vivo, female CD-1 mice; settings: mouse (female, CD-1)
Method: PK parameters for the lead compounds were determined using three mice per data point (Supplementary Methods 6.1).
Blood samples were collected from terminal cardiac puncture at 0.08 (IV only), 0.25, 0.5, 1 (PO only), 2, 4, 8 and 24 hour time points. The whole blood was centrifuged to obtain plasma. Brains were also collected following cardiac perfusion from both sets of animals at 2 hours. Analysis of the biological samples was carried out by the company Selcia. Plasma proteins were precipitated by addition of PBS (1 volume) followed by 3 volumes of acetonitrile containing internal standard (verapamil). Following filtration through a protein precipitation plate the eluent was dried under nitrogen and re-suspended in mobile phase prior to analysis. Individual brains were homogenised in PBS and diluted to 10% w/v and divided into aliquots consisting of brain homogenate (1 volume, 0.3 ml) and 3 volumes (0.9 ml) of acetonitrile containing internal standard. Samples were centrifuged and supernatants removed and taken through a protein precipitation plate alongside an appropriate standard. Eluents were dried under nitrogen and re-suspended in mobile phase prior to analysis. Eluents were analysed by LC-MS/MS using a Phenomenex Gemini NX column (C18,30 x 2.1 mm, 3 micron). Analysis of the data was carried out using PK solutions software.

Question: For `CN(C)CCn1ccc2c(ccn2Cc2ccc(Cl)c(Cl)c2)c1=O` [CTCB-405, 1-[(3,4-Dichlorophenyl)methyl]-5-[2-(dimethylamino)ethyl] pyrrolo[3,2-c]pyridin-4-one], which microsomal CLint at 5 µM [1] is on record?
Answer: 70 µL/min/mg

Question: And the “Plasma concentration, individual animal” value ([2]; 1 mg/kg IV bolus, 0.08 h)?
Answer: 0.415 µM and 0.386 µM and 140.6 ng/ml and 135.9 ng/ml

Question: What about the “Plasma concentration, individual animal” value ([2]; 1 mg/kg IV bolus, 0.25 h) of the same compound?
Answer: 0.37 µM and 0.489 µM and 178.1 ng/ml and 108.2 ng/ml

Question: What about the “Plasma concentration, individual animal” value ([2]; 1 mg/kg IV bolus, 0.5 h) of the same compound?
Answer: 0.118 µM and 0.159 µM and 57.9 ng/ml and 49.5 ng/ml

Question: And the “Plasma concentration, individual animal” value ([2]; 1 mg/kg IV bolus, 2 h)?
Answer: 0.049 µM and 0.069 µM and 0.109 µM and 25.1 ng/ml and 39.7 ng/ml and 17.8 ng/ml

Question: And the “Plasma concentration, individual animal” value ([2]; 1 mg/kg IV bolus, 4 h)?
Answer: 0.042 µM and 0.015 µM and 0.019 µM and 5.5 ng/ml and 6.9 ng/ml and 15.3 ng/ml

Question: And the “Plasma concentration, individual animal” value ([2]; 1 mg/kg IV bolus, 8 h)?
Answer: 0.011 µM and 4.0 ng/ml

Question: And the “Plasma concentration, individual animal” value ([2]; 5 mg/kg oral dose (PO), 0.25 h)?
Answer: 279.4 ng/ml and 164.7 ng/ml and 0.767 µM and 0.452 µM

Question: What about the “Plasma concentration, individual animal” value ([2]; 5 mg/kg oral dose (PO), 0.5 h) of the same compound?
Answer: 77.6 ng/ml and 126.4 ng/ml and 0.213 µM and 0.347 µM

Question: What about the “Plasma concentration, individual animal” value ([2]; 5 mg/kg oral dose (PO), 1 h) of the same compound?
Answer: 129.3 ng/ml and 229.9 ng/ml and 100.9 ng/ml and 0.355 µM and 0.631 µM and 0.277 µM

Question: What about the “Plasma concentration, individual animal” value ([2]; 5 mg/kg oral dose (PO), 2 h) of the same compound?
Answer: 177.4 ng/ml and 144.3 ng/ml and 303.4 ng/ml and 0.487 µM and 0.396 µM and 0.833 µM

Question: What about the “Plasma concentration, individual animal” value ([2]; 5 mg/kg oral dose (PO), 4 h) of the same compound?
Answer: 88.9 ng/ml and 83.8 ng/ml and 0.244 µM and 0.23 µM

Question: And the “Plasma concentration, individual animal” value ([2]; 5 mg/kg oral dose (PO), 8 h)?
Answer: 9.1 ng/ml and 0.025 µM

Question: What about the concentration at 0.08 h ([2]; female, CD-1, mouse, plasma, intravenous, 1 mg/kg, 1 mg/kg IV bolus, 0.08 h, read-out: Plasma concentration, Mean) of the same compound?
Answer: 143 ng/mL and 391 nM

Question: And the concentration at 0.08 h ([2]; female, CD-1, mouse, plasma, intravenous, 1 mg/kg, 1 mg/kg IV bolus, 0.08 h, read-out: Plasma concentration, individual animal)?
Answer: 373 nM and 151 ng/mL

Question: And the concentration at 0.25 h ([2]; female, CD-1, mouse, plasma, intravenous, 1 mg/kg, 1 mg/kg IV bolus, 0.25 h, read-out: Plasma concentration, Mean)?
Answer: 140 ng/mL and 385 nM

Question: And the concentration at 0.25 h ([2]; female, CD-1, mouse, plasma, intravenous, 1 mg/kg, 1 mg/kg IV bolus, 0.25 h, read-out: Plasma concentration, individual animal)?
Answer: 297 nM and 135 ng/mL

Question: And the concentration at 0.5 h ([2]; female, CD-1, mouse, plasma, intravenous, 1 mg/kg, 1 mg/kg IV bolus, 0.5 h, read-out: Plasma concentration, Mean)?
Answer: 50.1 ng/mL and 138 nM

Question: What about the concentration at 0.5 h ([2]; female, CD-1, mouse, plasma, intravenous, 1 mg/kg, 1 mg/kg IV bolus, 0.5 h, read-out: Plasma concentration, individual animal) of the same compound?
Answer: 136 nM and 43 ng/mL

Question: And the concentration at 2 h ([2]; female, CD-1, mouse, plasma, intravenous, 1 mg/kg, 1 mg/kg IV bolus, 2 h)?
Answer: 27.6 ng/mL and 75.7 nM

Question: What about the concentration at 4 h ([2]; female, CD-1, mouse, plasma, intravenous, 1 mg/kg, 1 mg/kg IV bolus, 4 h, read-out: Plasma concentration, Mean) of the same compound?
Answer: 9.23 ng/mL and 25.3 nM

Question: What about the concentration at 8 h ([2]; female, CD-1, mouse, plasma, intravenous, 1 mg/kg, 1 mg/kg IV bolus, 8 h, read-out: Plasma concentration, Mean) of the same compound?
Answer: 3.28 ng/mL and 9 nM

Question: What about the concentration at 8 h ([2]; female, CD-1, mouse, plasma, intravenous, 1 mg/kg, 1 mg/kg IV bolus, 8 h, read-out: Plasma concentration, individual animal) of the same compound?
Answer: 7 nM and 2.5 ng/mL

Question: What about the concentration at 0.25 h ([2]; female, CD-1, mouse, plasma, oral, 5 mg/kg, 5 mg/kg oral dose (PO), 0.25 h, read-out: Plasma concentration, Mean) of the same compound?
Answer: 200 ng/mL and 548 nM

Question: And the concentration at 0.25 h ([2]; female, CD-1, mouse, plasma, oral, 5 mg/kg, 5 mg/kg oral dose (PO), 0.25 h, read-out: Plasma concentration, individual animal)?
Answer: 155 ng/mL and 426 nM

Question: And the concentration at 0.5 h ([2]; female, CD-1, mouse, plasma, oral, 5 mg/kg, 5 mg/kg oral dose (PO), 0.5 h, read-out: Plasma concentration, Mean)?
Answer: 103 ng/mL and 283 nM
